Results taken from patent US12410211B2, “V1A receptor partial agonist and method of use” (PharmaIN Corporation, priority 2020, dated 2025).
Where a SMILES comes first, the peptide text is derived from it. Bridges are numbered along the chain shown (N, C = ends).

Tests used:
[1] = Acute diuretic activity of Terlipressin, Tolvaptan and combinations in Wistar rats (Example 5); format: in vivo
Protocol: The animals were then treated with Terlipressin (Bachem, Torrance CA), Tolvaptan (Fisher Scientific, Waltham, MA) and combination of the two compounds at various concentrations administered subcutaneously (n=4). Test articles were Terlipressin 0.05 mg/Kg and 0.15 mg/Kg, Tolvaptan 0.3 mg/Kg, and 1.0 mg/Kg, Terlipressin 0.05 mg/Kg+Tolvaptan 0.3 mg/Kg, Terlipressin 0.05 mg/Kg+Tolvaptan 1.0 mg/Kg, Terlipressin 0.15 mg/Kg+Tolvaptan 0.3 mg/Kg, and Terlipressin 0.15 mg/Kg+1.0 mg/Kg. Furosemide (Fisher Scientific, Waltham, MA) was used as positive control and dosed at 20 mg/kg via oral gavage. Control dosed vehicle group (9% tween 80; Fisher Scientific, Waltham MA) administered subcutaneously was included and the resulting data was subtracted from individual test article data. After the dose, animals were placed in the metabolic cage (Tecniplast; Province of Varese, Italy) and urine was collected and measured at 2, 4 and 8 hours after the dosing of test articles. Urine volumes were divided by the body weight (pre-dose) times 100 to express in ml/100 g body weight.

[2] = Therapeutic index (NOAEL/NOEL): paleness, lethargy, ataxia observation in Sprague-Dawley rats (Example 7); format: in vivo
In short: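 Male Sprague-Dawley rats, 8–10 weeks, under isoflurane (n=3 or 6), dosed IV or SC with test articles. Paleness judged by ear colour beside untreated controls; lethargy and ataxia scored by observation. Index expressed as NOAEL/NOEL ratio.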

[3] = Telemetric evaluation of portal vein pressure in rats with bile duct ligation (Example 9); format: in vivo, Sprague Dawley rats; settings: BDL rats n = 4, 41 μg/kg intravenous bolus
Protocol: For this study, animals (Sprague Dawley rats (240-300 g at surgery from Charles River Laboratory) were maintained at room temperatures (20 to 22° C.) with 14-hour light, 10-hour dark cycle when not performing study procedures. The mean portal vein pressure (MPVP) reduction efficacy of a peptide of Formula ([…] [SEQ ID NO. 13]; Mpa and C are disulfide bonded; represented as TA-1) was compared to terlipressin in telemetered male with Bile Duct Ligation (BDL) and Sham surgery. On Study Day 1, rats received bile duct ligation surgery and telemetry implantation. The BDL group (n=4) had two stands of silk suture tightened and tied to occlude the bile duct; the sham group (n=3) had sutures loosely tied around the bile duct so that no occlusion occurred. After recovery from surgery, all rats had their portal vein pressure monitored continuously via telemetry until Day 22. […] Terlipressin was administered through intravenous bolus into a lateral tail vein on Day 20 and 21. All animals were dosed under manual restraint. Systolic portal vein pressure and diastolic portal vein pressure were measured to calculate the Mean Portal Vein Pressure ([…] was analyzed by averaging 5 minute intervals for the first 4 hours after dose and thereafter averaging 1 hour intervals after dose until 24 hours. […] Telemetric evaluation of […] [SEQ ID NO. 13] and Terlipressin on portal vein pressure in rats with bile duct ligation. The animal room temperatures were set to maintain 20 to 22° C. A 14-hour light, 10-hour dark cycle was implemented unless interrupted by study procedures. Efficacy was assessed by evaluating mean portal vein pressure (MPVP) at different concentrations of Formula 1 and Terlipressin in telemetered male Sprague Dawley rats (240-300 g at surgery from Charles River Laboratory) with Bile Duct Ligation (BDL) and Sham surgery. On Study Day 1, rats received bile duct ligation surgery and telemetry implantation. The BDL group (n=4) had two stands of silk suture tightened and tied to occlude the bile duct; the sham group (n=3) had sutures loosely tied around the bile duct so that no occlusion occurred. After recovery from surgery, all rats had their portal vein pressure monitored continuously via telemetry until Day 22. […] Formula 1 was administered at different concentrations subcutaneously on Day 15 to 19, and Day 23; Terlipressin was administered through intravenous bolus into a lateral tail vein on Day 20 and 21. All animals were dosed under manual restraint. Systolic portal vein pressure and diastolic portal vein pressure were measured to calculate the Mean Portal Vein Pressure ([…] was analyzed by averaging 5 minute intervals for the first 4 hours after dose and thereafter averaging 1 hour intervals after dose until 24 hours.

V2 = V2 (Homo sapiens, UniProt P30518); settings: cited from earlier work
V2, sequence (P30518 whole entry): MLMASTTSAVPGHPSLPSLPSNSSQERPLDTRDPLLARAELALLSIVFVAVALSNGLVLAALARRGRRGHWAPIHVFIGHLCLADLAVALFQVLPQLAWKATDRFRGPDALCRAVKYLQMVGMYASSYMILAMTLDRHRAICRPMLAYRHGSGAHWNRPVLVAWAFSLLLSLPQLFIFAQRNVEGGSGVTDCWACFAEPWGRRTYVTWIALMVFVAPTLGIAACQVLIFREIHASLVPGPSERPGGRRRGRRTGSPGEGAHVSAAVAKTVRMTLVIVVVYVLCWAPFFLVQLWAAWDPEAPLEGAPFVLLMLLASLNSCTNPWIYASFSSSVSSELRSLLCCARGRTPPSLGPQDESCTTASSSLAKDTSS

NCCCC[C@H](NC(=O)[C@@H]1CCCN1C(=O)[C@@H]1CSSC[C@H](NC(=O)CNC(=O)CNC(=O)CN)C(=O)N[C@@H](Cc2ccc(O)cc2)C(=O)N[C@@H](Cc2ccccc2)C(=O)N[C@@H](CCC(N)=O)C(=O)N[C@@H](CC(N)=O)C(=O)N1)C(=O)NCC(N)=O [Terlipressin, reference compound] (H-GGGCYFQNCPKG-NH2; disulfide 4-9)
Average mL of Urine per 100 gram body weight 8 hours cumulative (n = 4) minus Vehicle group (Tween 80); (SEM) ([1]; Terlipressin 0.05 mg/Kg subcutaneous): 0.70 (0.17) mL per 100 gram body weight | Average mL of Urine per 100 gram body weight 8 hours cumulative (n = 4) minus Vehicle group (Tween 80); (SEM) ([1]; Terlipressin 0.15 mg/Kg subcutaneous): 1.32 (0.23) mL per 100 gram body weight | Paleness (Duration, hrs; SD) ([2]; I.V., at the Marked adverse effect dose): (3.56 ± 0.06) hrs | Paleness (Duration, hrs; SD) ([2]; I.V., at the Mild adverse effect dose): (2.82 ± 0.03) hrs | Paleness (Duration, hrs; SD) ([2]; I.V., at the NOAEL dose): (1.3 ± 0.05) hrs | Paleness (Duration, hrs; SD) ([2]; I.V., at the NOEL dose): None observed | Highest dose with no-observed effect level or paleness (NOEL) ([2]; I.V., rat): 0.005 mg/kg | NOAEL at 24 h ([2]; male, Sprague-Dawley, in vivo, iv, I.V., rat, read-out: Highest dose with no-observed adverse effect level without lethargy (NOAEL)): 0.05 mg/kg | Marked adverse effect (Lowest dose first showed Ataxia) ([2]; rat, in vivo, iv): 1.5 mg/kg | Mild adverse effect (Lowest dose first showed Lethargy) ([2]; rat, in vivo, iv): 0.15 mg/kg | Percent decrease (%) in Mean Portal Vein Pressure (MPVP) from BDL baseline prior to treatment ([3]; Time 1 hr): −23% | Percent decrease (%) in Mean Portal Vein Pressure (MPVP) from BDL baseline prior to treatment ([3]; Time 4 hr): 11.3% | Percent decrease (%) in Mean Portal Vein Pressure (MPVP) from BDL baseline prior to treatment ([3]; Time 7 hr): 10.8% | Percent decrease (%) in Mean Portal Vein Pressure (MPVP) from BDL baseline prior to treatment ([3]; Time 20 hr): 7.3% | V2 or anti-diuretic activity (V2): 3%
